# Measurements published in patent US20230192648A1, “IMMUNOREGULATORY COMPOUNDS” (NIMML INSTITUTE, priority 2021, published 2023).
# Entries after “also recorded” stand apart in the source; their conditions may differ.
# Tests used:
# [1] = test system: bm12 model of systemic inflammation; assay: bm12 mouse model of systemic inflammation; assay type: in vivo
# [2] = test system: DSS model of acute inflammatory bowel disease; assay: DSS model of acute inflammatory bowel disease; assay type: in vivo, mouse; details: oral, 10 mg/kg once daily, relative to vehicle; for proportion of CD4+ T cells in the colonic lamina propria: FIG. 3A; for F4/80hi macrophages (colon): FIG. 3C
# Experimental: DSS model. Mice were given DSS in drinking water for seven days. At project initiation, mice were 8 weeks of age and began dosing 24 hours after being placed on DSS. Mice were weighed and scored daily for symptoms of disease (diarrhea, rectal bleeding, rectal inflammation, overall behavior). Treatments were prepared within a 0.5% methylcellulose (12-15 cP) solution. The dosage used was 10 mg/kg delivered once daily. Flow Cytometry. Colons were collected into RPMI/FBS buffer containing collagenase (300 U/mL) and DNase (50 U/mL) for digestion. Tissues were digested for 60 minutes under stirring at 37° C. Resultant cellular suspensions were filtered through 100 µm strainers, centrifuged (300 x g, 8 min), and washed in fresh RPMI. Following filtration of the resulting single cell suspensions, immune cells were purified by Percoll gradient of cell-containing 40% Percoll overlayed onto 70% Percoll solution. After centrifugation, interphase was collected and washed to obtain enriched colonic lamina propria cell fractions. Cells were labeled with mixtures of extracellular (CD45, CD3, CD4, CD8, CD25, F4/80, CD11b, MHCII) antibodies in a sequential live staining in 96-well plates. Data was acquired using a FACS Celesta flow cytometer with FACSDiva software.
# influenza A (H1N1) = assay: Influenza A (H1N1) infection of mice, survival; assay type: in vivo, mouse; details: 25 mg/kg orally daily, FIG. 4; for delay of first mortality: vehicle mortality beginning at day 6
# Experimental: Wild type C57BL/6 mice were anesthetized by isoflurane inhalation. Mice were infected with influenza A (H1N1) intranasally at a challenge titer of 2 x 10^4 TCID50/mL. Mice were treated daily with NIM-1001-2, NIM-1001-8, or NIM-1001-9 at a dose of 25 mg/kg orally via gavage. Mice were monitored daily.
# [3] = test system: experimental autoimmune encephalomyelitis; assay: Mouse model of experimental autoimmune encephalomyelitis (adoptive transfer of MOG-primed splenocytes); assay type: in vivo; details: oral 20 mg/kg from 7 days post-transfer
# Experimental: Mouse model. C57BL6 mice were challenged at 10- to 16-weeks of age with MOG immunization with complete Freund’s adjuvant. MOG emulsion was administered to the cervical region and the hind flank at 100 µL per site to each mouse. After 10 days, spleens were harvested. Isolated splenocytes were cultured in the presence of MOG, IL-12 and anti-interferon gamma for 3 days. Splenocytes were then washed and injected into recipient mice at approximately 20 million cells per mouse. Oral treatment with NIM-1001-8 (20 mg/kg) or vehicle was initiated at 7 days post-transfer. Mice were be scored (0-3) daily for disease activity (coordination, gait, paralysis).
# Flow Cytometry. Spinal cords were excised and digested with papain and DNase. Immune cells were purified by Percoll gradient. Cells were labeled with mixtures of extracellular (CD45, CD3, CD4, CD8, CD25) and intracellular (IL17) antibodies in a sequential live staining in 96-well plates in preparation for flow cytometry. Data was captured on a BD FACS Celesta and analyzed using FacsDiva.
# Histology. Sections of the spinal cord from the lumbar region were extracted and fixed in formalin. Samples were embedded in paraffin and sectioned. By immunohistochemistry, samples were stained for the presence of glial fibrillary acidic protein (GFAP). Slides were assessed microscopically and scored (0-3) for the intensity and frequency of GFAP positive cells. GFAP is a common protein marker for astrocytes in the central nervous system
# [4] = test system: MRL/lpr model of systemic lupus erythematosus; assay: MRL/lpr genetic mouse model of SLE; assay type: in vivo; details: daily orogastric gavage from 12 weeks of age
# Experimental: Mouse model. Female MRL/lpr mice were obtained at 8 weeks of age. Mice were followed for four weeks for the development of proteinuria. […] Treatment with NIM-1001-8, or vehicle control, were administered by orogastric gavage daily, beginning at 12 weeks of age, in a 0.5% methylcellulose suspension.
# (§1) Immunological analysis. Urine was collected for assay for protein content to test for kidney function. Spleens were excised, crushed and filtered to provide a cellular suspension. Red blood cells were lysed. Cells were labeled with mixtures of extracellular (CD45, CD3, CD4, CD8, CD25) and intracellular (FOXP3, IL17) antibodies in a sequential live staining in 96-well plates in preparation for flow cytometry. Data was captured on a BD FACS Celesta and analyzed using FacsDiva.
# [5] = test system: genetic model of Alzheimer's disease; assay: Genetic mouse model of Alzheimer's disease; assay type: in vivo; details: oral 10 mg/kg for eight weeks, relative to vehicle
# Experimental: Mouse model. Genetically modified mice that spontaneously develop cognitive impairment at 4 months of age and histological signs of disease at 6 months of age were randomized into the project at 24 weeks of age. Mice were orally treated with vehicle or NIM-1001-8 (10 mg/kg) for eight weeks. After eight weeks of treatment, mice were evaluated using a light-dark test to measure the time spent in the light relative to the dark. This is a measure of an anxiety response. Genetically modified mice were compared to age-matched wild-type mice (negative control).
# Flow Cytometry. Brains were collected into RPMI/FBS buffer containing collagenase (300 U/mL) and DNase (50 U/mL) for digestion. Tissues were digested for 30 minutes under stirring at 37° C. Resultant cellular suspensions were filtered through 100 µm strainers, centrifuged (300 x g, 8 min), and washed in fresh RPMI. Following filtration of the resulting single cell suspensions, immune cells were purified by Percoll gradient of cell-containing 40% Percoll overlayed onto 70% Percoll solution. After centrifugation, interphase was collected and washed to obtain enriched immune cell fractions. Cells were labeled with mixtures of extracellular (CD45, CD3, CD4, CD8, CD11b, Gr1) and intracellular (IL17) antibodies in a sequential live staining in 96-well plates. Data was acquired using a FACS Celesta flow cytometer with FACSDiva software.
# [6] = test system: MPTP induced model of Parkinson's disease; assay: MPTP induced mouse model of Parkinson's disease; assay type: in vivo; details: oral 25 mg/kg once daily
# Experimental: Mouse model. Mice were administered intraperitoneal injections of 1-methyl-4-phenyl-1,2,3,6-tetrahydropyridine (MPTP) and probenecid three times weekly for 4 weeks. In the second week of injections, oral treatment with vehicle or NIM-1001-8 (25 mg/kg) was initiated once daily. After four weeks of injections, motor control was assessed by counting the number of step errors during a challenging beam test. Mice challenged with MPTP were compared to mice challenged with a sham injection (negative control).
# as §1, with “Flow Cytometry.” for “Immunological analysis. Urine was collected for assay for protein content to test for kidney function.”, “(IL21,” for “(FOXP3,”
# [7] = test system: IMQ-induced model of psoriasis; assay: Imiquimod (IMQ) induced model of psoriasis; assay type: in vivo, mouse; details: oral 20 mg/kg daily
# Experimental: IMQ-induced model. C57BL/6 mice were anesthetized, shaved, and briefly exposed to depilatory cream on the surface of the back. Mice were given three days to recover from the procedure prior to entry to the study. After 3 days, mice were challenged with approximately 60 mg of […] imiquimod cream daily by spreading cream over the shaved area. Oral treatment with vehicle or NIM-1001-8 (20 mg/kg) occurred daily.
# Analysis. Spleens were excised and crushed by microscope slides. Red blood cells were hypotonically lysed from the resultant suspension. Samples were filtered, washed and centrifuged prior to staining. Cells were labeled with mixtures of extracellular (CD45, CD3, CD4, CD8, CD25, F4/80, CD11b, MHCII) and intracellular (TNF, IL17) antibodies in a sequential live staining in 96-well plates in preparation for flow cytometry. Data was captured on a BD FACS Celesta and analyzed using FacsDiva.
# [8] = test system: NOD model of Sjogren's syndrome; assay: NOD mouse model of Sjogren's syndrome; assay type: in vivo; details: relative to vehicle, FIG. 10
# Experimental: NOD model. Ten-week-old female NOD mice were treated with vehicle or NIM-1001-8 (2 or 50 mg/kg) daily by oral gavage for four weeks. After conclusion of the treatment period, submandibular glands were excised and fixed in formalin. Glands were processed and H&E-stained slides were prepared. Slides were scored by blinded reviewer, on a 0 to 4 composite scale encompassing level of inflammation and disease.
# [9] = oral gavage daily, 20 mg/kg/day, relative to vehicle; FIG. 2A
# [10] = oral gavage daily, 20 mg/kg/day, relative to vehicle; FIG. 2C
# [11] = oral gavage daily, 20 mg/kg/day, relative to vehicle, FIG. 2C
smiles,measurement,setting,value
CCc1noc(/C=C/c2cncc(Oc3cc(-c4nc(C)no4)cc(Cl)n3)c2C)n1 [NIM-1001-2],spleen size in proportion to overall body weight,[1]; [9],significantly reduced
same,proportion of CD25+ FOXP3+ regulatory T cells in the spleen,[1]; [10],significantly increased
same,proportion of CD4+ T cells in the colonic lamina propria,[2],reduced
same,survival at day 10 (fraction of group),influenza A (H1N1); vehicle 25% survival by day 10,two-thirds
same,delay of first mortality,influenza A (H1N1),one day
CCc1noc(/C=C/c2cncc(Nc3cc(-c4nc(C)no4)cc(Cl)n3)c2)n1 [NIM-1001-11],proportion of CD4+ T cells in the colonic lamina propria,[2],reduced
same,F4/80hi macrophages (colon),[2],significant reductions
CCNC(=O)/C=C/c1cncc(Nc2nccc(C(=O)NC)n2)c1 [NIM-1001-12],spleen size in proportion to overall body weight,[1]; [9],significantly reduced
same,proportion of CD25+ FOXP3+ regulatory T cells in the spleen,[1]; [10],significantly increased
same,proportion of CD4+ T cells in the colonic lamina propria,[2],reduced
same,F4/80hi macrophages (colon),[2],significant reductions
CCNC(=O)/C=C/c1cncc(Oc2nccc(C(=O)NC)n2)c1C [NIM-1001-9],spleen size in proportion to overall body weight,[1]; [9],significantly reduced
same,proportion of CD25+ FOXP3+ regulatory T cells in the spleen,[1]; [10],significantly increased
same,survival at day 10 (fraction of group),influenza A (H1N1); vehicle 25% survival by day 10,two-thirds
same,delay of first mortality,influenza A (H1N1),one day
"CCOC(=O)/C=C/c1cncc(Oc2cc(C(=O)OC)cc(Cl)n2)c1C [NIM-1001-8, methyl (E)-2-chloro-6-((5-(3-ethoxy-3-oxoprop-1-en-1-yl)-4-methylpyridin-3-yl)oxy)isonicotinate]",proportion of CD25+ FOXP3+ regulatory T cells in the spleen,[1]; [11],significantly increased; also recorded: largest magnitude of increase
same,spleen size in proportion to overall body weight,[1]; [9],significantly reduced
same,proportion of CD4+ T cells in the colonic lamina propria,[2],reduced
same,F4/80hi macrophages (colon),[2],significant reductions
same,survival at day 10,influenza A (H1N1); vehicle 25% survival by day 10,83%
same,delay of first mortality,influenza A (H1N1),two days
same,overall disease severity (score 0-3),[3]; FIG. 5A,amelioration
same,proportion of CD4+ IL17+ T cells in the spinal cord,[3]; FIG. 5B,decreased
same,GFAP positive staining in the spinal cord,[3]; FIG. 5C,decreased
same,"urine protein levels, reduction","[4]; relative to vehicle, FIG. 6A",more than two-fold
same,splenic CD25+ FOXP3+ regulatory T cells,"[4]; P < 0.05, FIG. 6B",significant increase
same,splenic CD4+ IL17+ cells,"[4]; P < 0.05, FIG. 6C",significant decrease
same,time spent in the light (light-dark test),"[5]; FIG. 7A, 10 mg/kg",significantly increased; also recorded: restored the time to equal that of the negative control group
same,proportion of neutrophils in the brain,[5]; FIG. 7B,decreased
same,proportion of CD4+ IL17+ T cells in the brain,[5]; FIG. 7C,decreased
same,number of step errors during a challenging beam test,"[6]; relative to vehicle, FIG. 8A",significantly reduced; also recorded: near complete abrogation of MPTP effects
same,CD4+ IL21+ T cells within the spleen,"[6]; P < 0.05, FIG. 8B",significant reductions
same,CD4+ IL17+ T cells within the spleen,"[6]; P < 0.05, FIG. 8C",significant reductions
same,proportion of TNF+ CD4+ T cells in the spleen,"[7]; relative to vehicle, FIG. 9A",significantly reduced
same,proportion of IL17+ CD4+ T cells in the spleen,"[7]; relative to vehicle, FIG. 9B",significantly reduced
same,proportion of F4/80hi inflammatory macrophages,[7]; FIG. 9C,decreased
same,histological severity of disease in the submandibular glands (score 0 to 4),[8]; 2 mg/kg daily by oral gavage for four weeks,significantly reduced
same,histological severity of disease in the submandibular glands (score 0 to 4),[8]; 50 mg/kg daily by oral gavage for four weeks,significantly reduced
CCOC(=O)/C=C/c1cncc(Nc2cc(C(=O)OC)cc(Cl)n2)c1 [NIM-1001-10],spleen size in proportion to overall body weight,[1]; [9],reduced the normalized spleen size at a lesser degree
CCOC(=O)/C=C/c1cncc(Oc2cc(C(=O)NC)cc(Cl)n2)c1C [NIM-1001-4],proportion of CD25+ FOXP3+ regulatory T cells in the spleen,[1]; [11],significantly increased; also recorded: largest magnitude of increase
same,spleen size in proportion to overall body weight,[1]; [9],reduced the normalized spleen size at a lesser degree
